Measurements from ChEMBL document CHEMBL3045111, “Synthesis and herbicidal activities of novel 3-(substituted benzyloxy or phenoxy)-6-methyl-4-(3-trifluoromethylphenyl)pyridazine derivatives” (2012).
Activity calls are given as the source filed them. The rule behind the calls is not given here.

How the values were obtained:
[1] = tested on: Brassica rapa subsp. oleifera; test: Post-emergence herbicidal activity against one-leaf stage Brassica rapa subsp. oleifera under greenhouse condition assessed as complete bleaching of leaves at 600 g /ha measured after 24 days by spray method; type: functional, organism-based
[2] = tested on: Brassica rapa subsp. oleifera; test: Post-emergence herbicidal activity against one-leaf stage Brassica rapa subsp. oleifera under greenhouse condition at 7.5 g /ha measured after 24 days by spray method; type: functional; conditions: 576 h, read-out: GI
[3] = tested on: Brassica rapa subsp. oleifera; test: Post-emergence herbicidal activity against one-leaf stage Brassica rapa subsp. oleifera under greenhouse condition at 15 g /ha measured after 24 days by spray method; type: functional; conditions: 576 h, read-out: GI
[4] = tested on: Brassica rapa subsp. oleifera; test: Post-emergence herbicidal activity against one-leaf stage Brassica rapa subsp. oleifera under greenhouse condition at 30 g /ha measured after 24 days by spray method; type: functional; conditions: 576 h, read-out: GI
[5] = tested on: Brassica rapa subsp. oleifera; test: Post-emergence herbicidal activity against one-leaf stage Brassica rapa subsp. oleifera under greenhouse condition at 60 g /ha measured after 24 days by spray method; type: functional; conditions: 576 h, read-out: GI
[6] = tested on: Brassica rapa subsp. oleifera; test: Post-emergence herbicidal activity against one-leaf stage Brassica rapa subsp. oleifera under greenhouse condition at 75 g /ha measured after 24 days by spray method; type: functional; conditions: 576 h, read-out: GI
[7] = tested on: Brassica rapa subsp. oleifera; test: Post-emergence herbicidal activity against one-leaf stage Brassica rapa subsp. oleifera under greenhouse condition at 150 g /ha measured after 24 days by spray method; type: functional; conditions: 576 h, read-out: GI
[8] = tested on: Brassica rapa subsp. oleifera; test: Post-emergence herbicidal activity against one-leaf stage Brassica rapa subsp. oleifera under greenhouse condition at 300 g /ha measured after 24 days by spray method; type: functional; conditions: 576 h, read-out: GI
[9] = tested on: Brassica rapa subsp. oleifera; test: Post-emergence herbicidal activity against one-leaf stage Brassica rapa subsp. oleifera under greenhouse condition at 600 g /ha measured after 24 days by spray method; type: functional; conditions: 576 h, read-out: GI
Digitaria [10] = test: Post-emergence herbicidal activity against one-leaf stage of Digitaria adscendens under greenhouse condition at 750 g /ha measured after 24 days by spray method; type: functional; conditions: in Digitaria adscendens, 576 h, read-out: GI
Echinochloa crus-galli [11] = test: Post-emergence herbicidal activity against one-leaf stage of Echinochloa crus-galli (barnyard grass) under greenhouse condition at 750 g /ha measured after 24 days by spray method; type: functional; conditions: 576 h, read-out: GI
Amaranthus retroflexus [12] = test: Post-emergence herbicidal activity against one-leaf stage of Amaranthus retroflexus under greenhouse condition at 750 g /ha measured after 24 days by spray method; type: functional; conditions: 576 h, read-out: GI
[13] = tested on: Brassica rapa subsp. oleifera; test: Post-emergence herbicidal activity against one-leaf stage Brassica rapa subsp. oleifera under greenhouse condition at 750 g /ha measured after 24 days by spray method; type: functional; conditions: 576 h, read-out: GI
Digitaria [14] = test: Pre-emergence herbicidal activity against Digitaria adscendens under greenhouse condition at 750 g /ha measured after 24 days by spray method; type: functional; conditions: in Digitaria adscendens, 576 h, read-out: GI
Echinochloa crus-galli [15] = test: Pre-emergence herbicidal activity against Echinochloa crus-galli (barnyard grass) under greenhouse condition at 750 g /ha measured after 24 days by spray method; type: functional; conditions: 576 h, read-out: GI
Amaranthus retroflexus [16] = test: Pre-emergence herbicidal activity against Amaranthus retroflexus under greenhouse condition at 750 g /ha measured after 24 days by spray method; type: functional; conditions: 576 h, read-out: GI
[17] = tested on: Brassica rapa subsp. oleifera; test: Pre-emergence herbicidal activity against Brassica rapa subsp. oleifera under greenhouse condition at 750 g /ha measured after 24 days by spray method; type: functional; conditions: 576 h, read-out: GI
Spirodela polyrhiza [18] = test: Bleaching herbicidal activity in Spirodela polyrhiza fronds cultured in compound-containing in medium assessed as chlorophyll inhibition at 1 ug/ml after 7 days; type: functional; conditions: 168 h
Spirodela polyrhiza [19] = test: Bleaching herbicidal activity in Spirodela polyrhiza fronds cultured in compound-containing in medium assessed as chlorophyll inhibition at 10 ug/ml after 7 days; type: functional; conditions: 168 h
Amaranthus retroflexus [20] = test: Post-emergence herbicidal activity against one-leaf stage Amaranthus retroflexus under greenhouse condition assessed as complete bleaching of leaves at 150 g /ha measured after 24 days by spray method; type: functional, organism-based
Amaranthus retroflexus [21] = test: Post-emergence herbicidal activity against one-leaf stage Amaranthus retroflexus under greenhouse condition assessed as complete bleaching of leaves at 300 g /ha measured after 24 days by spray method; type: functional, organism-based
Amaranthus retroflexus [22] = test: Post-emergence herbicidal activity against one-leaf stage Amaranthus retroflexus under greenhouse condition assessed as complete bleaching of leaves at 600 g /ha measured after 24 days by spray method; type: functional, organism-based
[23] = tested on: Brassica rapa subsp. oleifera; test: Post-emergence herbicidal activity against one-leaf stage Brassica rapa subsp. oleifera under greenhouse condition assessed as complete bleaching of leaves at 7.5 g /ha measured after 24 days by spray method; type: functional, organism-based
[24] = tested on: Brassica rapa subsp. oleifera; test: Post-emergence herbicidal activity against one-leaf stage Brassica rapa subsp. oleifera under greenhouse condition assessed as complete bleaching of leaves at 15 g /ha measured after 24 days by spray method; type: functional, organism-based
[25] = tested on: Brassica rapa subsp. oleifera; test: Post-emergence herbicidal activity against one-leaf stage Brassica rapa subsp. oleifera under greenhouse condition assessed as complete bleaching of leaves at 30 g /ha measured after 24 days by spray method; type: functional, organism-based
[26] = tested on: Brassica rapa subsp. oleifera; test: Post-emergence herbicidal activity against one-leaf stage Brassica rapa subsp. oleifera under greenhouse condition assessed as complete bleaching of leaves at 60 g /ha measured after 24 days by spray method; type: functional, organism-based
[27] = tested on: Brassica rapa subsp. oleifera; test: Post-emergence herbicidal activity against one-leaf stage Brassica rapa subsp. oleifera under greenhouse condition assessed as complete bleaching of leaves at 75 g /ha measured after 24 days by spray method; type: functional, organism-based
[28] = tested on: Brassica rapa subsp. oleifera; test: Post-emergence herbicidal activity against one-leaf stage Brassica rapa subsp. oleifera under greenhouse condition assessed as complete bleaching of leaves at 150 g /ha measured after 24 days by spray method; type: functional, organism-based
[29] = tested on: Brassica rapa subsp. oleifera; test: Post-emergence herbicidal activity against one-leaf stage Brassica rapa subsp. oleifera under greenhouse condition assessed as complete bleaching of leaves at 300 g /ha measured after 24 days by spray method; type: functional, organism-based
Amaranthus retroflexus [30] = test: Post-emergence herbicidal activity against one-leaf stage Amaranthus retroflexus under greenhouse condition assessed as complete bleaching of leaves at 15 g /ha measured after 24 days by spray method; type: functional, organism-based
Amaranthus retroflexus [31] = test: Post-emergence herbicidal activity against one-leaf stage Amaranthus retroflexus under greenhouse condition at 7.5 g /ha measured after 24 days by spray method; type: functional; conditions: 576 h, read-out: GI
Amaranthus retroflexus [32] = test: Post-emergence herbicidal activity against one-leaf stage Amaranthus retroflexus under greenhouse condition at 15 g /ha measured after 24 days by spray method; type: functional; conditions: 576 h, read-out: GI
Amaranthus retroflexus [33] = test: Post-emergence herbicidal activity against one-leaf stage Amaranthus retroflexus under greenhouse condition at 30 g /ha measured after 24 days by spray method; type: functional; conditions: 576 h, read-out: GI
Amaranthus retroflexus [34] = test: Post-emergence herbicidal activity against one-leaf stage Amaranthus retroflexus under greenhouse condition at 60 g /ha measured after 24 days by spray method; type: functional; conditions: 576 h, read-out: GI
Amaranthus retroflexus [35] = test: Post-emergence herbicidal activity against one-leaf stage Amaranthus retroflexus under greenhouse condition at 75 g /ha measured after 24 days by spray method; type: functional; conditions: 576 h, read-out: GI
Amaranthus retroflexus [36] = test: Post-emergence herbicidal activity against one-leaf stage Amaranthus retroflexus under greenhouse condition at 150 g /ha measured after 24 days by spray method; type: functional; conditions: 576 h, read-out: GI
Amaranthus retroflexus [37] = test: Post-emergence herbicidal activity against one-leaf stage Amaranthus retroflexus under greenhouse condition at 300 g /ha measured after 24 days by spray method; type: functional; conditions: 576 h, read-out: GI
Amaranthus retroflexus [38] = test: Post-emergence herbicidal activity against one-leaf stage Amaranthus retroflexus under greenhouse condition at 600 g /ha measured after 24 days by spray method; type: functional; conditions: 576 h, read-out: GI
Amaranthus retroflexus [39] = test: Post-emergence herbicidal activity against one-leaf stage Amaranthus retroflexus under greenhouse condition assessed as complete bleaching of leaves at 7.5 g /ha measured after 24 days by spray method; type: functional, organism-based
Amaranthus retroflexus [40] = test: Post-emergence herbicidal activity against one-leaf stage Amaranthus retroflexus under greenhouse condition assessed as complete bleaching of leaves at 30 g /ha measured after 24 days by spray method; type: functional, organism-based
Amaranthus retroflexus [41] = test: Post-emergence herbicidal activity against one-leaf stage Amaranthus retroflexus under greenhouse condition assessed as complete bleaching of leaves at 60 g /ha measured after 24 days by spray method; type: functional, organism-based
Amaranthus retroflexus [42] = test: Post-emergence herbicidal activity against one-leaf stage Amaranthus retroflexus under greenhouse condition assessed as complete bleaching of leaves at 75 g /ha measured after 24 days by spray method; type: functional, organism-based

SMILES: Cc1cc(-c2cccc(C(F)(F)F)c2)c(Oc2ccc(C#N)cc2)nn1
- Activity [1]: Active
- inhibition of growth at 7.5 g/ha [2]: 41%
- inhibition of growth at 15 g/ha [3]: 47%
- inhibition of growth at 30 g/ha [4]: 57%
- inhibition of growth at 60 g/ha [5]: 89%
- inhibition of growth at 75 g/ha [6]: 90%
- inhibition of growth at 150 g/ha [7]: 95%
- inhibition of growth at 300 g/ha [8]: 98%
- inhibition of growth at 600 g/ha [9]: 99%
- inhibition of growth at 750 g/ha (Digitaria [10]): 99%
- inhibition of growth at 750 g/ha (Echinochloa crus-galli [11]): 83%
- inhibition of growth at 750 g/ha (Amaranthus retroflexus [12]): 100%
- inhibition of growth at 750 g/ha [13]: 96%
- inhibition of growth at 750 g/ha (Digitaria [14]): 99%
- inhibition of growth at 750 g/ha (Echinochloa crus-galli [15]): 91%
- inhibition of growth at 750 g/ha (Amaranthus retroflexus [16]): 99%
- inhibition of growth at 750 g/ha [17]: 100%
- inhibition at 1 µg/mL (Spirodela polyrhiza [18]): 87%
- inhibition at 10 µg/mL (Spirodela polyrhiza [19]): 93%
- Activity (Amaranthus retroflexus [20]): Active
- Activity (Amaranthus retroflexus [21]): Active
- Activity (Amaranthus retroflexus [22]): Active
- Activity [23]: Active
- Activity [24]: Active
- Activity [25]: Active
- Activity [26]: Active
- Activity [27]: Active
- Activity [28]: Active
- Activity [29]: Active
- Activity (Amaranthus retroflexus [30]): Active
- inhibition of growth at 7.5 g/ha (Amaranthus retroflexus [31]): 34%
- inhibition of growth at 15 g/ha (Amaranthus retroflexus [32]): 37%
- inhibition of growth at 30 g/ha (Amaranthus retroflexus [33]): 38%
- inhibition of growth at 60 g/ha (Amaranthus retroflexus [34]): 42%
- inhibition of growth at 75 g/ha (Amaranthus retroflexus [35]): 99%
- inhibition of growth at 150 g/ha (Amaranthus retroflexus [36]): 100%
- inhibition of growth at 300 g/ha (Amaranthus retroflexus [37]): 100%
- inhibition of growth at 600 g/ha (Amaranthus retroflexus [38]): 100%
- Activity (Amaranthus retroflexus [39]): Active
- Activity (Amaranthus retroflexus [40]): Active
- Activity (Amaranthus retroflexus [41]): Active
- Activity (Amaranthus retroflexus [42]): Active
